Source: PMC9026286, “Bacterial Lipodepsipeptides and Some of Their Derivatives and Cyclic Dipeptides as Potential Agents for Biocontrol of Pathogenic Bacteria and Fungi of Agrarian Plants” (Journal of Agricultural and Food Chemistry, 2022)
Values after ≈ are worked out from the molar mass of the structure shown. Where a SMILES comes first, the peptide text is derived from it. Bridges are numbered along the chain shown (N, C = ends). [ ]: non-standard residue; d: D form. The star is where a group is joined. ξ: configuration not given here. d(aThr) = C[C@@H](O)[C@@H](N)C(=O)O; Octanoyl(3-OH) = CCCCCC(O)CC(=O)*; X1 = CCCCCC(CC(=O)*)OC(C)=O; dDab = NCC[C@@H](N)C(=O)O; hSer = N[C@@H](CCO)C(=O)O; ξQ = NC(=O)CCC(N)C(=O)O; Dhb = C/C=C(\N)C(=O)O; ξL = CC(C)CC(N)C(=O)O; ξDab = NCCC(N)C(=O)O; ξK = NCCCCC(N)C(=O)O; ξT = CC(O)C(N)C(=O)O; ξV = CC(C)C(N)C(=O)O; ξAbu = CCC(N)C(=O)O; ξP = O=C(O)C1CCCN1; ξS = NC(CO)C(=O)O

How the values were obtained:
[1] = system: Colletotrichum truncatum 17-5-5; details: strain 17-5-5; lipodepsipeptides, serial dilutions from 0.1 to 1 μg/mL, potato dextrose broth, 24-well plates, 28 °C, 7 days; lowest concentration with no visible growth; triplicate
Procedure: The antifungal activity was performed in 24-well culture plates according to the method previously described[31] with some modification. Serial dilutions of different lipodepsipeptides (from 0.1 to 1 μg/mL) and cyclic dipeptides (from 10 to 1000 μg/mL) were dissolved in a volume of 500 μL of ultrapure Milli-Q and finally inoculated with 500 μL of 2× potato dextrose broth (Difco) containing the Colletotrichum truncatum plug of 4 mm × 4 mm diameter. As a control, C. truncatum plugs (4 mm × 4 mm) were grown in 2× PD broth diluted with 500 μL of ultrapure Milli-Q water, and the plates were incubated at 28 °C for 7 days. The MIC was measured as the lowest concentration of antifungal agent at which there was no visible growth of the fungus after incubation. The experiment was performed in triplicate.

[2] = system: all the bacteria and the fungus tested; assay: Antimicrobial and antifungal tests, MIC ranges summarised over the panel; type: cell-based; details: for reduction of activity with respect to that of 9: compared with compound 9
Procedure: (§1) The experiment was performed in triplicate.
as §1

Phytophthora infestans = details: cited from earlier work
Plasmopara viticola = details: cited from earlier work
Bacillus megaterium QMB = details: 48 h
Procedure: (§2) Bacteria were grown in LB broth at 25 or 37 °C overnight at 150 rpm. A total of 500 μL of a suspension containing about 10^8 cfu mL^–1 were added to 3 mL of LB soft agar (0.7%) and poured onto plates containing 7 mL of LB broth with agar 1.8%. After agar gelification, 10 μL drops of serial dilutions of different lipodepsipeptides and their derivatives (from 0.1 to 1 μg/mL) and cyclic dipeptides (from 10 to 1000 μg/mL) were tested. After 24 ± 48 h of incubation at 25 or 37 °C, the end serial dilution inhibiting the growth of the bacteria in the area of application of 10 μL solutions was recorded. The plates containing the bacteria alone were used as a control. The experiment was performed in triplicate.

Bacillus subtilis PY79 = details: PY79, 48 h
Procedure: as §2

Rhodococcus fascians LMG = details: cited from earlier work
[3] = lipodepsipeptides and derivatives, range over all the bacteria and the fungus tested (summary of Table 1)
[4] = 2,5-diketopiperazines, range over all microorganisms tested (summary of Table 2)

Question: With `C/C=C(\NC(=O)[C@H](NC(=O)[C@H](CC(C)C)NC(=O)[C@@H](CCC(N)=O)NC(=O)[C@@H](NC(=O)[C@H](NC(=O)[C@@H](CC(C)C)NC(=O)[C@@H](CO)NC(=O)[C@H](NC(=O)[C@@H](CC(C)C)NC(=O)[C@@H](CO)NC(=O)[C@H]1CCCN1C(=O)/C(=C/C)NC(=O)CC(O)CCCCC)C(C)C)C(C)C)C(C)C)C(C)C)C(=O)N[C@H]1C(=O)N[C@@H]([C@@H](C)CC)C(=O)N[C@@H](CCO)C(=O)N[C@H](CCN)C(=O)N[C@@H](CCCCN)C(=O)O[C@@H]1C` (stereo partly drawn) [compound 1, tolaasin I] ({Octanoyl(3-OH)}-[Dhb][dP][dS][dL][dV][dS][dL][dV]V[dQ]L[dV][Dhb][d(aThr)]I[hSer][dDab]K; ester 14-C) as the compound, how does the MIC [1] read?
Answer: 0.6 µg/mL (≈ 0.302 µM)

Question: Which MIC range [2, 3] does the source give for `C/C=C(\NC(=O)C(NC(=O)C(CC(C)C)NC(=O)C(CCC(N)=O)NC(=O)C(NC(=O)C(NC(=O)C(CC(C)C)NC(=O)C(CO)NC(=O)C(NC(=O)C(CC(C)C)NC(=O)C(CO)NC(=O)C1CCCN1C(=O)/C(=C/C)NC(=O)CC(O)CCCCC)C(C)C)C(C)C)C(C)C)C(C)C)C(=O)NC1C(=O)N[C@@H](CC(C)C)C(=O)N[C@@H](CCO)C(=O)NC(CCN)C(=O)NC(CCCCN)C(=O)OC1C` (stereo partly drawn) [compound 7, tolaasin D] ({Octanoyl(3-OH)}-[Dhb][ξP][ξS][ξL][ξV][ξS][ξL][ξV][ξV][ξQ][ξL][ξV][Dhb][ξT]L[hSer][ξDab][ξK]; ester 14-C) here?
Answer: 0.1 to 0.2 µg/mL

Question: And the MIC [1]?
Answer: 0.2 µg/mL (≈ 0.101 µM)

Question: With `O=C1N[C@@H](Cc2ccc(O)cc2)C(=O)N2CCC[C@@H]12` [compound 9, cyclo(L-Pro-L-Tyr)] as the compound, how does the MIC range [2, 4] read?
Answer: 15 to 20 µg/mL

Question: And the “antifungal activity against Phytophthora infestans” value (Phytophthora infestans)?
Answer: showed antifungal activity

Question: What about the “antifungal activity against Plasmopara viticola” value (Plasmopara viticola) of the same compound?
Answer: showed antifungal activity

Question: With `CC(C)C[C@@H]1NC(=O)[C@@H]2CCCN2C1=O` [compound 13, cyclo(L-Pro-L-Leu)] as the compound, how does the “reduction of activity with respect to that of 9” value ([2]; 2,5-diketopiperazines) read?
Answer: 40–50 times

Question: And the MIC (Bacillus megaterium QMB)?
Answer: 30 µg/mL (≈ 143 µM)

Question: What about the MIC (Bacillus subtilis PY79) of the same compound?
Answer: 15 µg/mL (≈ 71.3 µM)

Question: With `O=C1N[C@@H](Cc2ccc(O)cc2)C(=O)N2CCC[C@H]12` [compound 14, cyclo(D-Pro-L-Tyr)] as the compound, how does the “reduction of activity with respect to that of 9” value ([2]; 2,5-diketopiperazines) read?
Answer: 50–60 times

Question: Which results are given for `C/C=C(\NC(=O)[C@H](NC(=O)[C@H](CC(C)C)NC(=O)[C@@H](CCC(N)=O)NC(=O)[C@@H](NC(=O)[C@H](NC(=O)[C@@H](CC(C)C)NC(=O)[C@@H](COC(C)=O)NC(=O)[C@H](NC(=O)[C@@H](CC(C)C)NC(=O)[C@@H](COC(C)=O)NC(=O)[C@H]1CCCN1C(=O)/C(=C/C)NC(=O)CC(CCCCC)OC(C)=O)C(C)C)C(C)C)C(C)C)C(C)C)C(=O)N[C@H]1C(=O)N[C@@H]([C@@H](C)CC)C(=O)N[C@@H](CCOC(C)=O)C(=O)N[C@H](CCNC(C)=O)C(=O)N[C@@H](CCCCNC(C)=O)C(=O)O[C@@H]1C` (stereo partly drawn) [compound 15, hexacetyl tolaasin I] (X1-[Dhb][dP][dS](Ac)[dL][dV][dS](Ac)[dL][dV]V[dQ]L[dV][Dhb][d(aThr)]I[hSer](Ac)[dDab](Ac)K(Ac); ester 14-C)?
Answer: MIC range ([2]; lipodepsipeptides and derivatives, range against the pathogenic bacteria and C. truncatum only): 0.7 to 1 µg/mL; MIC range [2, 3]: 0.7 to 1 µg/mL; MIC [1]: 1 µg/mL (≈ 0.446 µM)

Question: With `CCCCCC(O)CC(=O)NC(CC)C(=O)N1CCC[C@@H]1C(=O)N[C@H](CO)C(=O)N[C@H](CC(C)C)C(=O)N[C@@H](C(=O)N[C@H](CO)C(=O)N[C@H](CC(C)C)C(=O)N[C@@H](C(=O)N[C@H](C(=O)N[C@H](CCC(N)=O)C(=O)N[C@@H](CC(C)C)C(=O)N[C@@H](C(=O)NC(CC)C(=O)N[C@H]1C(=O)N[C@@H]([C@@H](C)CC)C(=O)N[C@@H](CCO)C(=O)N[C@H](CCN)C(=O)N[C@@H](CCCCN)C(=O)O[C@@H]1C)C(C)C)C(C)C)C(C)C)C(C)C` (stereo partly drawn) [compound 16, tetrahydro tolaasin I] ({Octanoyl(3-OH)}-[ξAbu][dP][dS][dL][dV][dS][dL][dV]V[dQ]L[dV][ξAbu][d(aThr)]I[hSer][dDab]K; ester 14-C) as the compound, how does the MIC range [2, 3] read?
Answer: 0.2 to 3 µg/mL

Question: What about the MIC [1] of the same compound?
Answer: 3 µg/mL (≈ 1.51 µM)

Question: With WLIP methyl ester [WILP methyl ester] as the compound, how does the MIC [1] read?
Answer: 5 µg/mL

Question: Which results are given for cyclo(L-Pro-L-Val) [compound 11]?
Answer: MIC range [2, 4]: not toxic; toxicity against Rhodococcus fascians (Rhodococcus fascians LMG): toxicity similar to that of chloramphenicol
